Legend:
Settings in all cases: human; call rule not given here
[1] = test system: Hepatotoxicity; experiment: FDA HLAED, liver enzyme composite activity
[2] = test system: Hepatotoxicity; experiment: FDA HLAED, alkaline phosphatase increase
[3] = test system: Hepatotoxicity; experiment: FDA HLAED, serum glutamic oxaloacetic transaminase (SGOT) increase
[4] = test system: Hepatotoxicity; experiment: FDA HLAED, serum glutamic pyruvic transaminase (SGPT) increase
[5] = test system: Hepatotoxicity; experiment: FDA HLAED, lactate dehydrogenase (LDH) increase
[6] = test system: Hepatotoxicity; experiment: FDA HLAED, gamma-glutamyl transferase (GGT) increase
Wherever GGT Increase - Index Value is given: reference of the scale not given here.
Wherever LDH Increase - Index Value is given: reference of the scale not given here.

Compound | Composite Activity - Active [1] | Composite Activity - Marginal [1] | Composite Activity - Score [1] | Alkaline Phosphatase Increase - Activity Score [2] | Alkaline Phosphatase Increase - Index Value [2] | Alkaline Phosphatase Increase - Number of Reports [2] | SGOT Increase - Activity Score [3] | SGOT Increase - Index Value [3] | SGOT Increase - Number of Reports [3] | SGPT Increase - Activity Score [4] | SGPT Increase - Index Value [4] | SGPT Increase - Number of Reports [4] | LDH Increase - Activity Score [5] | LDH Increase - Index Value [5] | LDH Increase - Number of Reports [5] | GGT Increase - Activity Score [6] | GGT Increase - Index Value [6] | GGT Increase - Number of Reports [6] | further results
Fc1ccccc1C1=NCC(=S)N(CC(F)(F)F)c2ccc(Cl)cc21 [QUAZEPAM] | 0 | 0 | Inactive | Inactive | 0 | < 4 | Inactive | 0 | < 4 | Inactive | 0 | < 4 | Inactive | 0 | < 4 | Inactive | 0 | < 4 | –
CC(=O)NO [ACETOHYDROXAMIC ACID] | 0 | 0 | Inactive | Inactive | 0 | < 4 | Inactive | 0 | < 4 | Inactive | 0 | < 4 | Inactive | 0 | < 4 | Inactive | 0 | < 4 | –
Cc1cc(C2CCCCC2)n(O)c(=O)c1 [CICLOPIROX] | 0 | 0 | Inactive | Inactive | 0 | < 4 | Inactive | 0 | < 4 | Inactive | 0 | < 4 | Inactive | 0 | < 4 | Inactive | 0 | < 4 | –
Fc1ccc([C@@H]2CCNC[C@H]2COc2ccc3c(c2)OCO3)cc1 [PAROXETINE] | 0 | 0 | Inactive | Inactive | 0.7 | >= 4 | Inactive | 1.2 | >= 4 | Inactive | 1 | >= 4 | Inactive | 0.4 | >= 4 | Inactive | 0.5 | >= 4 | –
CN1C(C(=O)Nc2ccccn2)=C(O)c2ccccc2S1(=O)=O [PIROXICAM] | 0 | 0 | Inactive | Inactive | 2.6 | >= 4 | Inactive | 1.7 | >= 4 | Inactive | 0.9 | >= 4 | Inactive | 0.5 | < 4 | Inactive | 0 | < 4 | –
C[C@]12CC[C@H]3[C@@H](CCC4=CC(=O)CC[C@@]43C)[C@@H]1CC[C@@H]2O [TESTOSTERONE] | 0 | 0 | Inactive | Inactive | 0 | < 4 | Inactive | 4.8 | < 4 | Inactive | 7.2 | < 4 | Inactive | 2.4 | < 4 | Inactive | 4.8 | < 4 | –
Brc1c(NC2=NCCN2)ccc2nccnc12 [BRIMONIDINE] | – | – | – | Inactive | 0 | < 4 | Inactive | 1.1 | < 4 | Inactive | 0 | < 4 | Inactive | 0 | < 4 | Inactive | 0 | < 4 | Composite Activity - Active ([1]; Liver): 0; Composite Activity - Marginal ([1]; Liver): 0; Composite Activity - Score ([1]; Liver): Inactive
O=C1NC(c2ccccc2)(c2ccccc2)C(=O)N1COP(=O)(O)O [FOSPHENYTOIN] | 0 | 0 | Inactive | Inactive | 0 | < 4 | Inactive | 0 | < 4 | Inactive | 0 | < 4 | Inactive | 0 | < 4 | Inactive | 0 | < 4 | –
C=C1/C(=C\C=C2/CCC[C@]3(C)[C@@H]([C@H](C)CCCC(C)(C)O)CC[C@@H]23)C[C@@H](O)C[C@@H]1O [CALCITRIOL] | 0 | 0 | Inactive | Inactive | 0 | < 4 | Inactive | 0 | < 4 | Inactive | 0 | < 4 | Inactive | 0 | < 4 | Inactive | 0 | < 4 | –
C=CC1=C(C(=O)O)N2C(=O)[C@@H](NC(=O)/C(=N\OCC(=O)O)c3csc(N)n3)[C@H]2SC1 [CEFIXIME] | 0 | 0 | Inactive | Inactive | 13.7 | < 4 | Inactive | 0.4 | >= 4 | Inactive | 0.4 | >= 4 | Inactive | 0.1 | < 4 | Inactive | 0 | < 4 | –
NCC1(CC(=O)O)CCCCC1 [GABAPENTIN] | 0 | 0 | Inactive | Inactive | 0.7 | >= 4 | Inactive | 0.8 | >= 4 | Inactive | 0.8 | >= 4 | Inactive | 0.4 | < 4 | Inactive | 0.7 | >= 4 | –
CC(C(=O)O)c1cccc(C(=O)c2ccccc2)c1 (stereo unspecified) [KETOPROFEN] | 0 | 0 | Inactive | Inactive | 0.6 | < 4 | Inactive | 0.6 | < 4 | Inactive | 0.4 | < 4 | Inactive | 0.4 | < 4 | Inactive | 0 | < 4 | –
